Values quoted from earlier work as cited in US12075777B2, “Antimicrobial formulation” (Anitox Corporation, priority 2011, dated 2024).

Tests used:
yeast = test system: yeast; parameters: dose or concentration left out as unconfirmed; settings: 10^5 CFU/bottle; equivalence: trans-2-hexenal with thermal treatment (56° C.) vs citral
[1] = test system: A. flavus, P. notatum, A. alternate, F. oxysporum, Cladosporium species, B. subtilis and A. tumerfaciens
soybean seed = settings: 1.8 of trans-2-hexenal/mL of air
peaches and nectarines = settings: at 40 μL/L
pears and apples = settings: 12.5 μL/L; twenty four hours to seven days exposure
[2] = test system: Staphylococcus aureus, E. coli and Salmonella typhimurium
[3] = 0, 0.1, 0.2, 0.3 and 0.4% in water

CC(C)=CCCC(C)=CC=O [citral]
concentration controlling yeast in beverages (yeast): 100-120 ppm | concentration in growth media that reduced the concentration of E. coli (E. coli): more than 0.01% | concentration with bactericidal effect (E. coli): 0.08%

CCC/C=C/C=O [trans-2-hexenal]
concentration that completely inhibited growth [1]: 8 ng/L air | inhibition of soybean seed germination (soybean seed): ~100% | body weight and intake (4000 ppm in diet, 13 wk): reduction in body weight and intake, but it was not significant | changes in hematological parameters or organ weights (dietary levels of 0, 260, 640, 1600 or 4000 ppm fed for 13 wk): did not induce any changes | phytotoxicity (peaches and nectarines): phytotoxic | effect on fruit appearance, color, firmness, soluble solids content or titrateable acidity (pears and apples): did not affect

CC/C=C/CC=O [(3E)-hexenal]
effective level in controlling bacteria [2]: 3 to 30 µg/mL

CC(=O)O [acetic acid]
effect on performance or intestinal microbial counts [3]: did not affect performance or intestinal microbial counts
